A word on the IC50: it is the concentration that gives 50% inhibition.

The structures appear in SMILES notation.

For one test, the target named is T1, KRAS WT (Homo sapiens, UniProt P01116).
T1 construct: made in house; host or cells: E. coli, e.g. BL21 (DE3)
Briefly: HTRF assay, wildtype KRAS interaction with SOS1. Conditions: bins <500 nM / 500 nM to 1000 nM, read-out: Inhibition of KRAS WT (IC50). In kind it is biochemical. In general terms: Time-resolved FRET reads energy transfer from a long-lived donor to a nearby acceptor.

The next test has as its target T2, KRAS G12S (Homo sapiens, UniProt P01116, G12S).
T2 construct: made in house; host or cells: E. coli, e.g. BL21 (DE3)
Briefly: HTRF assay, KRAS G12S interaction with SOS1. To be noted: bins <500 nM / 500 nM to 1000 nM, read-out: Inhibition of KRAS G12S (IC50). In kind it is biochemical.

Another test concerns MiaPaca2 cells. Briefly: Ras cellular assay, growth of cells with K-Ras G12C mutation. The class given is cell-based. To be noted: Homo sapiens, MIA PaCa-2; cell proliferation assay; bins ≤500 nM / >500 nM; read-out: Inhibition of MiaPaca2 Cells (IC50). The gist of the method:
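Anchorage-independent growth: G12C-mutant MIA PaCa-2 plated in soft agar, time-zero plate read the next day when compound was dosed (final DMSO 0.3%). After growth to day 10, MTS-type absorbance at 490/660 nm relative to time zero gave IC50 via four-parameter fitting.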

The next test concerns the target T3, KRAS G12D (Homo sapiens, UniProt P01116, G12D).
T3 construct: made in house; host or cells: E. coli, e.g. BL21 (DE3)
Briefly: HTRF assay, KRAS G12D interaction with SOS1. The class given is biochemical. To be noted: bins <500 nM / 500 nM to 1000 nM, read-out: Inhibition of KRAS G12D (IC50).

The target in another test is T4, KRAS G12V (Homo sapiens, UniProt P01116, G12V).
T4 construct: made in house; host or cells: E. coli, e.g. BL21 (DE3)
T4 sequence (P01116 1-188 isoform P01116-2 G12V): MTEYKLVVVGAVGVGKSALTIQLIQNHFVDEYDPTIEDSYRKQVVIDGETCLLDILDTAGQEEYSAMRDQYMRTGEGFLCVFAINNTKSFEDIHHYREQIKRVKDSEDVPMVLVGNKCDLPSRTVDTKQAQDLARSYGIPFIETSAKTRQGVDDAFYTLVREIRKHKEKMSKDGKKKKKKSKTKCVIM
Briefly: HTRF assay, KRAS G12V interaction with SOS1. The class given is biochemical. Conditions: bins <500 nM / 500 nM to 1000 nM, read-out: Inhibition of KRAS G12V (IC50).

T3 sequence (P01116 1-188 isoform P01116-2 G12D): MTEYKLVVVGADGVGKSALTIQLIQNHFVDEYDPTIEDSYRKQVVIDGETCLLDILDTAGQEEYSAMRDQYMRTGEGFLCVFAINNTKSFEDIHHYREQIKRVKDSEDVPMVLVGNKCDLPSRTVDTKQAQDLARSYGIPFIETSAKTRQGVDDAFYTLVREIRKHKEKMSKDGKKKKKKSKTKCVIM
T2 sequence (P01116 1-188 isoform P01116-2 G12S): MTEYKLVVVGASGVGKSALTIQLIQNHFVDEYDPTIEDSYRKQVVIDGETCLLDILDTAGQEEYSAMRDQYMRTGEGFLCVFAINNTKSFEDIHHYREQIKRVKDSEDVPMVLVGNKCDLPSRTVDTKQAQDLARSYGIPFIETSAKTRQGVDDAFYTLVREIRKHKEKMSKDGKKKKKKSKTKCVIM
T1 sequence (P01116 1-188 isoform P01116-2): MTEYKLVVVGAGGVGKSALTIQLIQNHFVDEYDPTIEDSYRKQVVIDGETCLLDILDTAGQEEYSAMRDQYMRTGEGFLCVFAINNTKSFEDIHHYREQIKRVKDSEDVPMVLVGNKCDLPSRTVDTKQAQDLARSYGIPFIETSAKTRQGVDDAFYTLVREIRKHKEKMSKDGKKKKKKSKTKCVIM

Regarding `Cc1cn(C(=O)N2CC(CN(C)c3nc(OC[C@@]45CCCN4C[C@H](F)C5)nc4c(F)c(-c5ccc(F)c6sc(N)c(C#N)c56)c(Cl)cc34)(C(F)F)C2)cn1` [Compound 156, 2-amino-4-(6-chloro-4-(((3-(difluoromethyl)-1-(4-methyl-1H-imidazole-1-carbonyl)azetidin-3-yl)methyl)(methyl)amino)-8-fluoro-2-(((2R,7aS)-2-fluorotetrahydro-1H-pyrrolizin-7a(5H)-yl)methoxy)quinazolin-7-yl)-7-fluorobenzo[b]thiophene-3-carbonitrile], the half-maximal inhibitory concentration (IC50) on KRAS WT was under 500 nM; on KRAS G12S, under 500 nM; in the test with MiaPaca2 cells, at most 500 nM; at KRAS G12D, under 500 nM; on KRAS G12V, under 500 nM.
Take `Cc1nc(C#N)cn1C(=O)N1CC[C@@H](N(C)c2nc(OC[C@@]34CCCN3C[C@H](F)C4)nc3c(F)c(-c4ccc(F)c5sc(N)c(C#N)c45)c(Cl)cc23)[C@H]1C` [Compound 158, 1-((2R,3R)-3-((7-(2-amino-3-cyano-7-fluorobenzo[b]thiophen-4-yl)-6-chloro-8-fluoro-2-(((2R,7aS)-2-fluorotetrahydro-1H-pyrrolizin-7a(5H)-yl)methoxy)quinazolin-4-yl)(methyl)amino)-2-methylpyrrolidine-1-carbonyl)-2-methyl-1H-imidazole-4-carbonitrile]: the IC50 on KRAS WT was under 500 nM; on KRAS G12S, under 500 nM; in the test with MiaPaca2 cells, at most 500 nM; on KRAS G12D, under 500 nM; on KRAS G12V, under 500 nM.
As to `CCN(c1nc(OC[C@@]23CCCN2C[C@H](F)C3)nc2c(F)c(-c3ccc(F)c4sc(N)c(C#N)c34)c(C(F)(F)F)cc12)[C@@H]1CCN(C(=O)n2cc(C#N)nc2C)[C@@H]1C` [Compound 159, 1-((2R,3R)-3-((7-(2-amino-3-cyano-7-fluorobenzo[b]thiophen-4-yl)-8-fluoro-2-(((2R,7aS)-2-fluorotetrahydro-1H-pyrrolizin-7a(5H)-yl)methoxy)-6-(trifluoromethyl)quinazolin-4-yl)(ethyl)amino)-2-methylpyrrolidine-1-carbonyl)-2-methyl-1H-imidazole-4-carbonitrile], the IC50 at KRAS WT was under 500 nM; at KRAS G12S it was under 500 nM; in the test on MiaPaca2 cells, at most 500 nM; at KRAS G12D it was under 500 nM; on KRAS G12V, under 500 nM.
With `CC1C(N(C)c2nc(OC[C@@]34CCCN3C[C@H](F)C4)nc3c(F)c(-c4ccc(F)c5sc(N)c(C#N)c45)c(Cl)cc23)CCN1C(=O)n1cnc(F)n1` (stereo partly drawn) [Compound 160, 2-amino-4-(6-chloro-8-fluoro-4-((1-(3-fluoro-1H-1,2,4-triazole-1-carbonyl)-2-methylpyrrolidin-3-yl)(methyl)amino)-2-(((2R,7aS)-2-fluorotetrahydro-1H-pyrrolizin-7a(5H)-yl)methoxy)quinazolin-7-yl)-7-fluorobenzo[b]thiophene-3-carbonitrile], the IC50 is under 500 nM at KRAS WT; under 500 nM at KRAS G12S; at most 500 nM in the test with MiaPaca2 cells; under 500 nM at KRAS G12D; under 500 nM at KRAS G12V.
As for `Cc1c(C#N)ncn1C(=O)N1C[C@]2(CCCCN(c3nc(OC[C@@]45CCCN4C[C@H](F)C5)nc4c(F)c(-c5ccc(F)c6sc(N)c(C#N)c56)c(Cl)cc34)C2)[C@H]1C` [Compound 161, 1-((1R,4R)-6-(7-(2-amino-3-cyano-7-fluorobenzo[b]thiophen-4-yl)-6-chloro-8-fluoro-2-(((2R,7aS)-2-fluorotetrahydro-1H-pyrrolizin-7a(5H)-yl)methoxy)quinazolin-4-yl)-1-methyl-2,6-diazaspiro[3.6]decane-2-carbonyl)-5-methyl-1H-imidazole-4-carbonitrile], the IC50 at KRAS WT is under 500 nM; on KRAS G12S, under 500 nM; with MiaPaca2 cells, at most 500 nM; at KRAS G12D, under 500 nM; on KRAS G12V, under 500 nM.

Source of the values: patent US20260217735A1, “HETEROCYCLES AND USES THEREOF” (Kumquat Biosciences Inc., priority 2023, published 2026).
